Test results: PubChem BioAssay (NCI)
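Compound exposure: 48 hours, 5 concentrations, 96-well plates. GI50 = concentration required for 50% inhibition of growth. TGI is the concentration that stops growth completely.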

Key:
Test in all cases: DTP human tumour cell line panel, 48 h
ACHN renal = system: ACHN renal
CAKI-1 renal = system: CAKI-1 renal
HL-60(TB) leukemia = system: HL-60(TB) leukemia
HOP-62 NSCLC = system: HOP-62 NSCLC
IGROV1 ovarian = system: IGROV1 ovarian
K-562 leukemia = system: K-562 leukemia
OVCAR-3 ovarian = system: OVCAR-3 ovarian
SK-OV-3 ovarian = system: SK-OV-3 ovarian
SNB-75 CNS = system: SNB-75 CNS
TK-10 renal = system: TK-10 renal

SMILES	GI50 (ACHN renal)	TGI (ACHN renal)	GI50 (CAKI-1 renal)	TGI (CAKI-1 renal)	GI50 (HL-60(TB) leukemia)	TGI (HL-60(TB) leukemia)	GI50 (HOP-62 NSCLC)	TGI (HOP-62 NSCLC)	GI50 (IGROV1 ovarian)	TGI (IGROV1 ovarian)	GI50 (K-562 leukemia)	TGI (K-562 leukemia)	GI50 (OVCAR-3 ovarian)	TGI (OVCAR-3 ovarian)	GI50 (SK-OV-3 ovarian)	TGI (SK-OV-3 ovarian)	GI50 (SNB-75 CNS)	TGI (SNB-75 CNS)	GI50 (TK-10 renal)	TGI (TK-10 renal)
CN(Cc1cccc(Cl)c1)c1ccc(CO)c(Cl)c1	21.9 µM	93.5 µM	2.36 µM	23.4 µM	13.9 µM	45 µM	6.77 µM	25.6 µM	0.448 µM	4.16 µM	8.76 µM	> 100 µM	3.46 µM	14 µM	8.16 µM	28.3 µM	14.7 µM	49.7 µM	0.215 µM	1.36 µM
COc1ccc(-n2cc(-c3ccc(F)cc3)[nH]c2=O)cc1OC	> 100 µM	> 100 µM	> 100 µM	> 100 µM	> 100 µM	> 100 µM	54.7 µM	> 100 µM	> 100 µM	> 100 µM	7.5 µM	> 100 µM	> 100 µM	> 100 µM	> 100 µM	> 100 µM	> 100 µM	> 100 µM	> 100 µM	> 100 µM
Nc1c(-c2ccc(-c3c(N)[n+]([O-])c4ccccc4[n+]3[O-])cc2)[n+]([O-])c2ccccc2[n+]1[O-]		31.1 µM		20.3 µM		> 100 µM		32.3 µM		47.5 µM		> 100 µM		29.8 µM		52.7 µM		21.9 µM		32.1 µM
COC(=O)C1=CCS(=O)(=O)C1		> 100 µM		> 100 µM		> 100 µM		> 100 µM		> 100 µM		> 100 µM		> 100 µM		> 100 µM		> 100 µM		> 100 µM
O=C(c1ccccc1)C(c1ccccc1)C1(O)C(=O)Nc2ccc(Br)cc21 (stereo not given)		> 100 µM		> 100 µM		48.2 µM		> 100 µM		> 100 µM		80.8 µM		> 100 µM		> 100 µM		> 100 µM		> 100 µM
Nc1nc(N)c(N=Nc2ccc([As](=O)(O)O)c(O)c2)c(N)n1		> 100 µM		> 100 µM		13.2 µM		> 100 µM		> 100 µM		> 100 µM		> 64.2 µM		> 100 µM		> 89.5 µM		> 51.8 µM
COc1ccc(S(=O)(=O)Nc2c(/C=C\c3cc(OC)c(OC)c(OC)c3)ccc(OC)c2O)cc1OC	0.526 µM	> 100 µM	1.01 µM	> 100 µM	0.338 µM	> 100 µM	0.61 µM	> 100 µM	0.358 µM	> 100 µM	0.0927 µM	> 100 µM	0.21 µM		1.29 µM	> 100 µM	0.251 µM	> 100 µM		> 100 µM
Cc1cnc2n(c1=O)Cc1ccccc1CO2	17.4 µM	33.8 µM	16.9 µM	32.5 µM	15.5 µM	35.1 µM	20 µM	38 µM	14.4 µM	32.5 µM	18.7 µM	48.3 µM	16.6 µM	34.3 µM	41 µM	> 100 µM	25.3 µM	> 64 µM	20.9 µM	49.4 µM
CCC1(O)CC(c2ccccc2)N(C)C(c2ccccc2)C1 (stereo not given)		> 100 µM		> 100 µM		> 100 µM		> 100 µM		> 100 µM		> 100 µM		> 100 µM		> 100 µM		> 100 µM		> 100 µM
O=C1CCCC1C(O)(C(F)(F)Cl)C(F)(F)Cl (stereo not given)		> 10 µM		> 10 µM		> 10 µM		> 10 µM		> 10 µM		> 10 µM		> 10 µM		> 10 µM		> 10 µM		> 10 µM
COc1cc(-c2cc(C(=O)N3CCN(C(=O)c4ccccc4NCc4cccs4)CC3)nc3cc(-c4ccccc4)nn23)cc(OC)c1OC	4.93 µM	> 100 µM	2.78 µM	8.33 µM	6.15 µM	75.4 µM	11 µM	86.7 µM	13.9 µM	> 100 µM	1.38 µM	17.4 µM	3.03 µM	11.3 µM	5.5 µM	> 100 µM	3.32 µM	27.6 µM	20.6 µM	> 100 µM
O=C(Nc1ccc(-n2cc(-c3ccncc3)c(-c3ccc(Cl)c(O)c3)n2)cc1)c1ccc(Cl)c(C(F)(F)F)c1	1.55 µM	5.28 µM	1.7 µM	3.8 µM	1.19 µM		0.622 µM	2.2 µM	3.11 µM	> 28.4 µM	0.404 µM	4.09 µM	2.03 µM	6.24 µM	1.81 µM	8.81 µM	0.362 µM	1.9 µM	2.69 µM	11.3 µM
O=C1/C=C/[C@@H](O)[C@@H]2C[C@@H](O)C[C@H]2/C=C/CCCCO1	0.43 µM	> 23.6 µM	0.785 µM		1.61 µM		2.23 µM	> 100 µM	0.831 µM	3.73 µM	2.02 µM	> 100 µM	0.202 µM	0.468 µM	1.05 µM	> 100 µM	0.17 µM	> 100 µM	0.388 µM	26.2 µM
CC/C(=C(/c1ccc(Cl)cc1)c1ccc(OCCCN(C)C)cc1)c1ccc(OC)cc1	5.61 µM	12.4 µM	5.55 µM	12.5 µM	1.15 µM	2.84 µM	7.76 µM	15.7 µM	3.09 µM	10.8 µM	1.06 µM	2.57 µM	3.27 µM	10.5 µM	10.2 µM	17.5 µM	6.02 µM	12.3 µM	6.23 µM	13 µM
Cn1cc(C2=C(c3cn(CCCN/C(N)=N\[N+](=O)[O-])c4ccccc34)C(=O)NC2=O)c2ccccc21	6.26 µM	> 25 µM	8.06 µM	> 25 µM	1.23 µM	7.66 µM	3.89 µM	> 16.6 µM	3.11 µM	11.6 µM	2.95 µM	> 22.5 µM	1.17 µM	11.4 µM	3.43 µM	> 20 µM	0.161 µM	7.92 µM	5.87 µM	19.2 µM
c1ccc2c(c1)-c1nc3ccccc3cc1C2N1CCOCC1 (stereo not given)		> 100 µM		> 100 µM		> 100 µM		> 100 µM		> 100 µM		> 100 µM		> 100 µM		> 100 µM		> 100 µM		> 100 µM
